Source: patent publication US20060035905A1, “Formulations of phosphodiesterase 5 inhibitors and methods of use” (Becton, Dickinson and Company, priority 2004, published 2006)
Where two headings read alike, the source gives them in different places. Marks after values point to notes of the source that are not given here.

How the values were obtained:
[1] = for Clearance: dose normalized; for Bioavailability: versus IV mesylate
Protocol: Intradermal injections were conducted at the flank region of Yucatan pigs using two different length of 31 gauge microneedles, 1.5 mm and 2.0 mm, noted as ID1.5 and ED 2.0, respectively. SC injections were conducted using regular half inch 30 gauge needles also at the flank region. […] After drug administration, blood samples were taken from the jugular vein port periodically and sera were collected after centrifugation and stored at −70° C. until analysis.
Pig serum samples (including pooled untreated serum) were briefly vortex-mixed and a 100 μl volume was transferred into a borosilicate glass screw-top conical test tube. 10 μl of the appropriate spiking solution was added to calibration and quality control (QC) samples. 10 μl of 50:50 methanol-water was added to study samples. […] The subsequent liquid/liquid extraction was performed by adding 2 ml of methyl t-butyl ether (MTBE) to each tube and vortex-mixing for 1 min, followed centrifugation at 3000 rpm for ˜10 min. Then the aqueous layer was frozen in dry-ice acetone bath and MTBE layer was decanted to glass tubes and dried in the TurboVap at 35° C. The samples were reconstituted in 200 μl acetonitrile containing 1% acetic acid and 0.025% TFA for LC-MS-MS analysis.
The standards and QCs for LC-MS-MS were made from a stock solution in MeOH-water 1:1, v/v. Calibration standard at concentrations of 10, 20, 500, 200, 500, 1000, 2500 and 5000 ng/ml. QCs were prepared at levels of 20, 2000, 4000 ng/ml. All standard and QCs were aliquoted and stored at 2-8° C. The LC-MS-MS system consisted of a Shimazu HPLC system (Kyoto, Japan) and a Sciex API 3000 tandem mass spectrometer (Ontario, Canada) with electrospray ionization in the positive ion mode [(+)-ESI]. The analytical column, Betasil silica of 5 μm, 50×3 mm I.D., was purchased from Keystone Scientific (Bellefonte, Pa., USA) and operated at 30° C. The mobile phase was a mixture of acetonitrile/water at 15/85 v/v and contains 1% acetic acid and 0.025% TFA. The injection volume was 30 μl. The run time was 3 min and the flow was 0.3 ml/min. The mass spectrometer was operated under multiple reaction monitoring mode with the ionspray needle maintained at 1.5 kV. The turbo gas temperature was 400° C. Nebulizing gas, curtain gas, and collision gas flows were at instrument settings of 8, 8, and 12, respectively. The declustering potential (DP), focusing potential (DP) and collision energy (CE) were at 65, 240, and 54 V, respectively.

[2] = in vivo; set-up: species or system Sprague-Dawley rats; settings: rat
Protocol: Animal surgery: The rat's femoral vein was cannulated for blood sampling for every group. For IN rats, an incision was made in the trachea and a polypropylene tube was inserted as an airway. To seal the pass way between the nasal cavity and trachea, a sealed tube was inserted through the same incision into the posterior of nasal cavity. Finally the nasopalatine was closed with an adhesive.
Blood samples were drawn from the femoral vein at predetermined time points.
20 μl of 12% perchloric acid was added to 80 μl rat serum followed by vortexing. Then 100 μl of water was added to achieve the sample volume required by HPLC assay.

[3] = IV, up to last sampling time point

Molecule: sildenafil mesylate
- MRT ([1]; ID 1.5 mm): 1.90 h
- Terminal t½ ([1]; ID 1.5 mm): 2.27 h
- Tmax ([1]; ID 1.5 mm): 0.083^c hr
- Clearance ([1]; ID 1.5 mm): 2537.01 mL/h/kg
- AUC ([1]; ID 1.5 mm, up to last sampling time point): 116.21 ng·h/mL
- Bioavailability ([1]; ID 1.5 mm): 56.95^c %
- Bioavailability ([1]; ID 1.5 mm, listed as mesylate salt): ~55%
- Cmax ([1]; ID 1.5 mm, ~5 mg sildenafil, average): 93.13 ng/mL
- MRT ([1]; ID 2.0 mm): 2.27 h
- Terminal t½ ([1]; ID 2.0 mm): 3.83 h
- Tmax ([1]; ID 2.0 mm): 0.18 h
- Clearance ([1]; ID 2.0 mm): 2143.21 mL/h/kg
- AUC ([1]; ID 2.0 mm, up to last sampling time point): 133.56 ng·h/mL
- Bioavailability ([1]; ID 2.0 mm): 66.79^c %
- Cmax ([1]; ID 2.0 mm, ~5 mg sildenafil, average): 70.98 ng/mL
- Terminal t½ ([1]; IV): 3.01 h
- Clearance ([1]; IV): 1413.48 mL/h/kg
- AUC [1, 3]: 229.41 ng·h/mL
- MRT [1, 3]: 1.90 h
- Cmax ([1]; IV, ~5 mg sildenafil, average): 307.35 ng/mL
- Tmax ([1]; IV, ~5 mg sildenafil, average): 0.0^b hr
- MRT ([1]; SC): 2.43 h
- Terminal t½ ([1]; SC): 2.84 h
- Tmax ([1]; SC): 0.12 h
- Clearance ([1]; SC): 2740.31 mL/h/kg
- AUC ([1]; SC, up to last sampling time point): 120.13 ng·h/mL
- Bioavailability ([1]; SC): 54.77^c %
- Bioavailability ([1]; SC, listed as mesylate salt): ~55%
- Cmax ([1]; SC, ~5 mg sildenafil, average): 111.28 ng/mL

Molecule: CCCc1nn(C)c2c(=O)[nH]c(-c3cc(S(=O)(=O)N4CCN(C)CC4)ccc3OCC)nc12 [sildenafil]
- Cmax ([2]; Sprague-Dawley): 547 ng/mL
- concentration at 5 min ([2]; Sprague-Dawley): 428 ng/mL
- time of maximum systemic concentration ([2]; Sprague-Dawley): around 15 min
- time of peak serum concentration ([2]; Sprague-Dawley): approximately 10 minutes
- Cmax ([2]; Sprague-Dawley, Cmax): ~1000 ng/mL
- maximum serum drug level (in words) ([2]; sc): comparable maximum serum drug level to the ID group
- time of Cmax ([2]; sc): 30 to 60 min

Molecule: sildenafil acetate
- MRT ([1]; ID 1.5 mm): 1.85 h
- Terminal t½ ([1]; ID 1.5 mm): 2.19 h
